Experiments:
Assay in all cases: KINOMEscan competition binding
Settings in all cases: compound 10.0 µM
PKN1 (human) = PKN1 (human) (UniProt Q16512)
PTK6 (human) = PTK6 (human) (UniProt Q13882)
PRKCD (human) = PRKCD (human) (UniProt Q05655)
RAF1 (human) = RAF1 (human) (UniProt P04049)
ROS1 (human) = ROS1 (human) (UniProt P08922)
MAP3K7 (human) = MAP3K7 (human) (UniProt O43318)
STK11 (human) = STK11 (human) (UniProt Q15831)
CDK5 (human) = CDK5 (human) (UniProt Q00535)
CDC42BPB (human) = CDC42BPB (human) (UniProt Q9Y5S2)
EPHB6 (human) = EPHB6 (human) (UniProt O15197)
HUNK (human) = HUNK (human) (UniProt P57058)
PAK4 (human) = PAK4 (human) (UniProt O96013)
PRKX (human) = PRKX (human) (UniProt P51817)
MERTK (human) = MERTK (human) (UniProt Q12866)
RPS6KA5 KD1 (human) = RPS6KA5 KD1 (human) (UniProt O75582)
PKN2 (human) = PKN2 (human) (UniProt Q16513)
EPHA6 (human) = EPHA6 (human) (UniProt Q9UF33)
MAP3K1 (human) = MAP3K1 (human) (UniProt Q13233)
DYRK1B (human) = DYRK1B (human) (UniProt Q9Y463)
SIK2 (human) = SIK2 (human) (UniProt Q9H0K1)
MKNK2 (human) = MKNK2 (human) (UniProt Q9HBH9)
MAK (human) = MAK (human) (UniProt P20794)
ADCK4 (human) = ADCK4 (human) (UniProt Q96D53)
CDK7 (human) = CDK7 (human) (UniProt P50613)
LCK (human) = LCK (human) (UniProt P06239)
MELK (human) = MELK (human) (UniProt Q14680)
NTRK2 (human) = NTRK2 (human) (UniProt Q16620)
NTRK1 (human) = NTRK1 (human) (UniProt P04629)
GRK1 (human) = GRK1 (human) (UniProt Q15835)
GAK (human) = GAK (human) (UniProt O14976)
DCLK2 (human) = DCLK2 (human) (UniProt Q8N568)
YES1 (human) = YES1 (human) (UniProt P07947)
BMPR2 (human) = BMPR2 (human) (UniProt Q13873)
MARK2 (human) = MARK2 (human) (UniProt Q7KZI7)
MAPK10 (human) = MAPK10 (human) (UniProt P53779)
CSNK1G1 (human) = CSNK1G1 (human) (UniProt Q9HCP0)
[1] = test system: EGFR (human), P00533 [752-759 del]
ALK (human) = ALK (human) (UniProt Q9UM73)
CAMK2B (human) = CAMK2B (human) (UniProt Q13554)

Chain of GAK (human) (O14976 whole entry, looked up): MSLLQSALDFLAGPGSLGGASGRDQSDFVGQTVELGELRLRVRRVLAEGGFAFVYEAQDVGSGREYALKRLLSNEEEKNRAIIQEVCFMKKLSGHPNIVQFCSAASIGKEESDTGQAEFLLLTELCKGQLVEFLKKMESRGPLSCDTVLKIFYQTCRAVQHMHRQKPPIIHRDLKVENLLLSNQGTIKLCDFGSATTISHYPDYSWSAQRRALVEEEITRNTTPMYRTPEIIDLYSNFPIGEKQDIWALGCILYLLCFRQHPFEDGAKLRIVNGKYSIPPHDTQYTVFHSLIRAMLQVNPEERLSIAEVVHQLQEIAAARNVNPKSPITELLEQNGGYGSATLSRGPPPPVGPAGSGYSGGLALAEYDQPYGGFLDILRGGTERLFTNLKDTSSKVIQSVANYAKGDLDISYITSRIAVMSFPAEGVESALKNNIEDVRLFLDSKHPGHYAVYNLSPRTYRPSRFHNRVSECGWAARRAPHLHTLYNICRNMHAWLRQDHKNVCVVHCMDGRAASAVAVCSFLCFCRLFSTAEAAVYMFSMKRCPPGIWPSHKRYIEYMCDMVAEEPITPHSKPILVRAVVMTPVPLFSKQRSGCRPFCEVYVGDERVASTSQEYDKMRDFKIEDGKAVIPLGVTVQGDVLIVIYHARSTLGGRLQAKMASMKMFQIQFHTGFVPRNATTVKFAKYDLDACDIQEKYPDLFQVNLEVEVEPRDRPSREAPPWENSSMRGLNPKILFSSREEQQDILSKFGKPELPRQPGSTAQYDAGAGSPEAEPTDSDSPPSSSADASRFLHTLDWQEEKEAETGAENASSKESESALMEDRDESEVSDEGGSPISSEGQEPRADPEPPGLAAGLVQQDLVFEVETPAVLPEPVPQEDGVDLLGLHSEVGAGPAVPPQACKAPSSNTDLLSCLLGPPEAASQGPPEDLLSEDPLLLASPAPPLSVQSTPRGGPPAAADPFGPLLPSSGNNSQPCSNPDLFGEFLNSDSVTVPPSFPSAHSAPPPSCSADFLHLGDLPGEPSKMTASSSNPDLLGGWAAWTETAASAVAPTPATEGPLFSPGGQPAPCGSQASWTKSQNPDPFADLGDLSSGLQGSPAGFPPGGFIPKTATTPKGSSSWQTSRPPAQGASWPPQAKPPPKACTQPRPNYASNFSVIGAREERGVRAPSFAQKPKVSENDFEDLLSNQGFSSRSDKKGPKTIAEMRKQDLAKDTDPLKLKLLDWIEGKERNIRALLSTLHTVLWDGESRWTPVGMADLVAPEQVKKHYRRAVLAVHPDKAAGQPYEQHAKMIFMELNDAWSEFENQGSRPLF
Chain of NTRK1 (human) (P04629 whole entry, looked up): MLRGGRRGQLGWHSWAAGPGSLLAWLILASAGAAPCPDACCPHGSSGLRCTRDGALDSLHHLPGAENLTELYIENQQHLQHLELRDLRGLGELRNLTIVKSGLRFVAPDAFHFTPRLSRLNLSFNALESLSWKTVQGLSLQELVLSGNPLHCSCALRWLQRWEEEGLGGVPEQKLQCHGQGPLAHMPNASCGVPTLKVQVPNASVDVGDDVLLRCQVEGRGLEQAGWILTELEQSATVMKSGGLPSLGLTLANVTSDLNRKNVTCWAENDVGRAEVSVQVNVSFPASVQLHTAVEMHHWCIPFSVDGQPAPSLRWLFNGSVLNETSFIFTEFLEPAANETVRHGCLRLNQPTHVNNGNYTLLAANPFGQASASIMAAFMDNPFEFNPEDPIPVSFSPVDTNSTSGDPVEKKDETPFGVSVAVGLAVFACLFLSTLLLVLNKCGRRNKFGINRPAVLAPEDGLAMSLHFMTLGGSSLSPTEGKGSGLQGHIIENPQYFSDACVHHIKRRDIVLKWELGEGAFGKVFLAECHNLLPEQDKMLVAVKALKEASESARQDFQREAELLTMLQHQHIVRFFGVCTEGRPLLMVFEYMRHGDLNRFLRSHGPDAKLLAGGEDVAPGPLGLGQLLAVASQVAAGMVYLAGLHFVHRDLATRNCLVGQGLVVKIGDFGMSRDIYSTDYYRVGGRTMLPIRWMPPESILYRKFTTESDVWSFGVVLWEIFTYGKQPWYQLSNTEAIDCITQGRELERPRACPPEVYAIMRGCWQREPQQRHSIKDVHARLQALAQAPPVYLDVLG
Chain of NTRK2 (human) (Q16620 whole entry, looked up): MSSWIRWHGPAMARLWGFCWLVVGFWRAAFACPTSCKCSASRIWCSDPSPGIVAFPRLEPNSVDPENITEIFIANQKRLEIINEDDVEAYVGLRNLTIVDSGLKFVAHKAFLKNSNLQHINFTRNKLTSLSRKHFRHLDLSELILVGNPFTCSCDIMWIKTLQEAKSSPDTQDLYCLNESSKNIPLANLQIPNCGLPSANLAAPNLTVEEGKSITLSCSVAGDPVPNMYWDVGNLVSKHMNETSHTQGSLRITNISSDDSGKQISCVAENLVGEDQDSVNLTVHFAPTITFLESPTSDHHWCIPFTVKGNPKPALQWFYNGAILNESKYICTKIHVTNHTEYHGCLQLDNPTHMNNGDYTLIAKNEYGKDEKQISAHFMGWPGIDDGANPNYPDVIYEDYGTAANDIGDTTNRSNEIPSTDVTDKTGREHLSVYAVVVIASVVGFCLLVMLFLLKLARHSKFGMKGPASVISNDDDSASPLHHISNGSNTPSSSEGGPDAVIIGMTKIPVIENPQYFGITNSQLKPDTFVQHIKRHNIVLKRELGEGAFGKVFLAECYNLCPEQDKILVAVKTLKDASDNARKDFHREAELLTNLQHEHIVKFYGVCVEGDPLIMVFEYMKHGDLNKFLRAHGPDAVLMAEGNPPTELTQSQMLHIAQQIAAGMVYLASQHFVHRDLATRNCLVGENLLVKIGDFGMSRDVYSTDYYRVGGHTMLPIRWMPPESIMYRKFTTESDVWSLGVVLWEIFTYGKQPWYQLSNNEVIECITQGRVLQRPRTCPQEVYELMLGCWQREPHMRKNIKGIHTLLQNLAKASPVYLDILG
Chain of YES1 (human) (P07947 whole entry, looked up): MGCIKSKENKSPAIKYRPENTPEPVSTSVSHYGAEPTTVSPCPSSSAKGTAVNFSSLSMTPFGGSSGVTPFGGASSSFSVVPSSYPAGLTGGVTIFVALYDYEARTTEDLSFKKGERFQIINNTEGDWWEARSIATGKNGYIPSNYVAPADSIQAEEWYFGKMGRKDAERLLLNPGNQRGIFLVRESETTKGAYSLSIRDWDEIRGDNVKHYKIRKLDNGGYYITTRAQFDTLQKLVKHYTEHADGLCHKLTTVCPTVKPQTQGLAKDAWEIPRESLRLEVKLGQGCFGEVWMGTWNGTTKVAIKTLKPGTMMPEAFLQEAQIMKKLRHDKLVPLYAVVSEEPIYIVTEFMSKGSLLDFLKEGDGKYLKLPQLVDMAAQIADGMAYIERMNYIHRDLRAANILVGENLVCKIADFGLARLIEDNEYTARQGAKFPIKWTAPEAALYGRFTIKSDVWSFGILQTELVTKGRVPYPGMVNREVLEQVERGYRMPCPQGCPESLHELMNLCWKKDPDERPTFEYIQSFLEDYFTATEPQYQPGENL
Chain of PKN2 (human) (Q16513 whole entry, looked up): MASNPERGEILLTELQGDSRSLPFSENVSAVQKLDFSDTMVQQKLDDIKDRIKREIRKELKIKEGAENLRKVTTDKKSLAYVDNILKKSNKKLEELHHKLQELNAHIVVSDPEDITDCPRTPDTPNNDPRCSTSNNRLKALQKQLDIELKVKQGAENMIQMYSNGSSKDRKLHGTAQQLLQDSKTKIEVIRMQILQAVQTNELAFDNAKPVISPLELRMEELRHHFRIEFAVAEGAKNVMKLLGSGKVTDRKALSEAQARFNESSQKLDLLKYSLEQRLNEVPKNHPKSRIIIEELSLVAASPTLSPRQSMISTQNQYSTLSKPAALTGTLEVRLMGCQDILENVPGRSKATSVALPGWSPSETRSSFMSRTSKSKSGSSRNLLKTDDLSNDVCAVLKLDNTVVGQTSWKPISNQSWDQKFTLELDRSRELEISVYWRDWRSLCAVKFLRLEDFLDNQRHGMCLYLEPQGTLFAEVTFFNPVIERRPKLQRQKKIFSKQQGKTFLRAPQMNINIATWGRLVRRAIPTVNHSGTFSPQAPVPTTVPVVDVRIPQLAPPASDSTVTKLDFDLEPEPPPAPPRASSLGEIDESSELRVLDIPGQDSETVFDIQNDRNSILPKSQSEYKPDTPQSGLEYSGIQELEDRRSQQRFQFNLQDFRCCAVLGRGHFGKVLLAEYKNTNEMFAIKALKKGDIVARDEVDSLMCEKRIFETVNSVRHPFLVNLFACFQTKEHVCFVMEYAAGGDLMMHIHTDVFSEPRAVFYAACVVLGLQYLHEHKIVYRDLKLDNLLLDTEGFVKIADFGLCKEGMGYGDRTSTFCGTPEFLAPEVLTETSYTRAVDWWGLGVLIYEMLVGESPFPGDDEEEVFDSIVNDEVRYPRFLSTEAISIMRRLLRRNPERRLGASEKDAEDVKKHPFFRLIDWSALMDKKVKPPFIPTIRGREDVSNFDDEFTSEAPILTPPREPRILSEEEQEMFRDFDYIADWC
Chain of RAF1 (human) (P04049 whole entry, looked up): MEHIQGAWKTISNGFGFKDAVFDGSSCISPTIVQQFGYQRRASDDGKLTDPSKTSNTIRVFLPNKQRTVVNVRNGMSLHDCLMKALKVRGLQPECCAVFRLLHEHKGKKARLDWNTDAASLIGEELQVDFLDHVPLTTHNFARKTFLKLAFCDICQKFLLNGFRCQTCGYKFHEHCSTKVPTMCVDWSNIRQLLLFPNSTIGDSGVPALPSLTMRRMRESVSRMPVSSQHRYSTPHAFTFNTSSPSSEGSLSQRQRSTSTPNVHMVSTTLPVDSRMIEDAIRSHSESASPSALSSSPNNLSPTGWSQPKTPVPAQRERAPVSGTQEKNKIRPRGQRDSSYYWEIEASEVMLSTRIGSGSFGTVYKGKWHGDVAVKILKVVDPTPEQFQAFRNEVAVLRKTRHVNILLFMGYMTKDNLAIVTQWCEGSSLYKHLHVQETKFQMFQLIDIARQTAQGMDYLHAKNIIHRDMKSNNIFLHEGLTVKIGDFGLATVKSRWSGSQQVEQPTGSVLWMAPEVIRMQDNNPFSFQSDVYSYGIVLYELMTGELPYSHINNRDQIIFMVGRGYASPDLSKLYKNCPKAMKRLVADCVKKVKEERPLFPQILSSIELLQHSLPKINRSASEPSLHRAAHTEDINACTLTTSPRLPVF

| Compound | kinase still bound, per cent of control (PKN1 (human)) | kinase still bound, per cent of control (PTK6 (human)) | kinase still bound, per cent of control (PRKCD (human)) | kinase still bound, per cent of control (RAF1 (human)) | kinase still bound, per cent of control (ROS1 (human)) | kinase still bound, per cent of control (MAP3K7 (human)) | kinase still bound, per cent of control (CDK5 (human)) | kinase still bound, per cent of control (CDC42BPB (human)) | kinase still bound, per cent of control (EPHB6 (human)) | kinase still bound, per cent of control (HUNK (human)) | kinase still bound, per cent of control (PAK4 (human)) | kinase still bound, per cent of control (PRKX (human)) | kinase still bound, per cent of control (RPS6KA5 KD1 (human)) | kinase still bound, per cent of control (PKN2 (human)) | kinase still bound, per cent of control (EPHA6 (human)) | kinase still bound, per cent of control (MAP3K1 (human)) | kinase still bound, per cent of control (DYRK1B (human)) | kinase still bound, per cent of control (SIK2 (human)) | kinase still bound, per cent of control (MKNK2 (human)) | kinase still bound, per cent of control (MAK (human)) | also measured |
| --- | --- | --- | --- | --- | --- | --- | --- | --- | --- | --- | --- | --- | --- | --- | --- | --- | --- | --- | --- | --- | --- |
| C[C@@H](Oc1cc(-c2cnn(C3CCNCC3)c2)cnc1N)c1c(Cl)ccc(F)c1Cl | 38% | 56% | 100% | 93% | 1.1% | 8.2% | 100% | 62% | 0.2% | 74% | 80% | 94% | 100% | 26% | 0.7% | 4.4% | 84% | 12% | 11% | 63% | kinase still bound, per cent of control (STK11 (human)): 57%; kinase still bound, per cent of control (MERTK (human)): 2.1%; kinase still bound, per cent of control (ADCK4 (human)): 3.4%; kinase still bound, per cent of control (CDK7 (human)): 1.2%; kinase still bound, per cent of control (LCK (human)): 0.15%; kinase still bound, per cent of control (MELK (human)): 47%; kinase still bound, per cent of control (NTRK2 (human)): 0.2%; kinase still bound, per cent of control (NTRK1 (human)): 0.1%; kinase still bound, per cent of control (GRK1 (human)): 92%; kinase still bound, per cent of control (GAK (human)): 79%; kinase still bound, per cent of control (DCLK2 (human)): 1.2%; kinase still bound, per cent of control (YES1 (human)): 17%; kinase still bound, per cent of control (BMPR2 (human)): 28%; kinase still bound, per cent of control (MARK2 (human)): 20%; kinase still bound, per cent of control (MAPK10 (human)): 80%; kinase still bound, per cent of control (CSNK1G1 (human)): 100% |
| N#CCNC(=O)c1ccc(-c2ccnc(Nc3ccc(N4CCOCC4)cc3)n2)cc1 | 66% | 100% | 54% | 100% | 100% | 49% | 100% | 42% | 58% | 100% | 100% | 74% | 100% | 47% | 98% | 92% | 90% | 14% | 1.2% | 100% | kinase still bound, per cent of control [1]: 72%; kinase still bound, per cent of control (ALK (human)): 100%; kinase still bound, per cent of control (STK11 (human)): 61%; kinase still bound, per cent of control (MERTK (human)): 100%; kinase still bound, per cent of control (ADCK4 (human)): 33%; kinase still bound, per cent of control (CDK7 (human)): 3.8%; kinase still bound, per cent of control (LCK (human)): 90%; kinase still bound, per cent of control (MELK (human)): 100%; kinase still bound, per cent of control (NTRK2 (human)): 67%; kinase still bound, per cent of control (GRK1 (human)): 100%; kinase still bound, per cent of control (GAK (human)): 3.4%; kinase still bound, per cent of control (DCLK2 (human)): 55%; kinase still bound, per cent of control (YES1 (human)): 91%; kinase still bound, per cent of control (BMPR2 (human)): 100%; kinase still bound, per cent of control (MARK2 (human)): 43%; kinase still bound, per cent of control (CAMK2B (human)): 14%; kinase still bound, per cent of control (MAPK10 (human)): 2.4%; kinase still bound, per cent of control (CSNK1G1 (human)): 100% |
| CNC(=O)c1cc(Oc2ccc(NC(=O)Nc3ccc(Cl)c(C(F)(F)F)c3)cc2)ccn1 | 99% | 100% | 100% | 0.05% | 83% | 6.2% | 39% | 100% | 3% | 70% | 91% | 100% | 100% | 100% | 9.2% | 64% | 92% | 97% | 0.1% | 41% | kinase still bound, per cent of control (ALK (human)): 69%; kinase still bound, per cent of control (STK11 (human)): 76%; kinase still bound, per cent of control (ADCK4 (human)): 100%; kinase still bound, per cent of control (CDK7 (human)): 4.2%; kinase still bound, per cent of control (MELK (human)): 100%; kinase still bound, per cent of control (NTRK1 (human)): 16%; kinase still bound, per cent of control (GRK1 (human)): 100%; kinase still bound, per cent of control (GAK (human)): 80%; kinase still bound, per cent of control (DCLK2 (human)): 100%; kinase still bound, per cent of control (YES1 (human)): 69%; kinase still bound, per cent of control (BMPR2 (human)): 78%; kinase still bound, per cent of control (MARK2 (human)): 98%; kinase still bound, per cent of control (CAMK2B (human)): 84%; kinase still bound, per cent of control (MAPK10 (human)): 100%; kinase still bound, per cent of control (CSNK1G1 (human)): 100% |
| COCC(=O)NC/C=C/c1ccc2ncnc(Nc3ccc(Oc4ccc(C)nc4)c(C)c3)c2c1 | 100% | 100% | 87% | 100% | 100% | 100% | 100% | 96% | 74% | 70% | 87% | 100% | 99% | 99% | 96% | 100% | 92% | 84% | 1.4% | 90% | kinase still bound, per cent of control (ALK (human)): 100%; kinase still bound, per cent of control (MERTK (human)): 97%; kinase still bound, per cent of control (ADCK4 (human)): 98%; kinase still bound, per cent of control (CDK7 (human)): 100%; kinase still bound, per cent of control (LCK (human)): 59%; kinase still bound, per cent of control (MELK (human)): 92%; kinase still bound, per cent of control (NTRK2 (human)): 100%; kinase still bound, per cent of control (NTRK1 (human)): 89%; kinase still bound, per cent of control (GRK1 (human)): 100%; kinase still bound, per cent of control (GAK (human)): 84%; kinase still bound, per cent of control (DCLK2 (human)): 100%; kinase still bound, per cent of control (YES1 (human)): 65%; kinase still bound, per cent of control (BMPR2 (human)): 73%; kinase still bound, per cent of control (CAMK2B (human)): 88%; kinase still bound, per cent of control (MAPK10 (human)): 68%; kinase still bound, per cent of control (CSNK1G1 (human)): 100% |

Reference: the kinase profiling compilation of Christmann-Franck et al. (2016)
